Assay results as given in patent US20090156577A1, “7-AMINO ALKYLIDENYL-HETEROCYCLIC QUINOLONES AND NAPHTHYRIDONES” (priority 2004, published 2009).
In brackets after ≈: the same amount, converted by molar mass. Where a name gives a salt, the structure may show the parent alone. Read-outs that look alike come from different tables or passages of the source.

System: pathogenic bacteria
Assay: MIC by microdilution broth method (NCCLS M7-A4), in vitro antibacterial activity
Format: cell-based
Summary of the method: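 MIC read after 35 °C incubation for 16–20 h relative to drug-free growth wells. Cation-adjusted Mueller-Hinton broth with two-fold compound dilutions, organisms at roughly 5×10^4 CFU/well final. Method follows NCCLS document M7-A4.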

[1] = Staphylococcus aureus, Organism A: Staphylococcus aureus OC4172, read-out: MIC
[2] = Streptococcus pneumoniae, ATCC49619, Organism E: Streptococcus pneumoniae ATCC 49619, read-out: MIC
[3] = Streptococcus pneumoniae, Organism B: fluoroquinolone-resistant clinical isolate of Streptococcus pneumoniae (QRDR amino acid substitutions)
[4] = Streptococcus pneumoniae, Organism C: fluoroquinolone-resistant clinical isolate of Streptococcus pneumoniae (QRDR amino acid substitutions)
[5] = Streptococcus pneumoniae, Organism D: fluoroquinolone-resistant clinical isolate of Streptococcus pneumoniae (QRDR amino acid substitutions)
[6] = Organism A: Staphylococcus aureus OC4172

SMILES	MIC [1] [µg/mL]	MIC [2] [µg/mL]	MIC [3] [µg/mL]	MIC [4] [µg/mL]	MIC [5] [µg/mL]	MIC (Staphylococcus aureus, Organism A: Staphylococcus aureus OC4172) [µg/mL]	MIC (Streptococcus pneumoniae, ATCC49619, Organism E: Streptococcus pneumoniae ATCC 49619) [µg/mL]	MIC [6] [µg/mL]	MIC (Organism C: fluoroquinolone-resistant clinical isolate of Streptococcus pneumoniae (QRDR amino acid substitutions)) [µg/mL]	MIC (Organism D: fluoroquinolone-resistant clinical isolate of Streptococcus pneumoniae (QRDR amino acid substitutions)) [µg/mL]	MIC (Organism E: Streptococcus pneumoniae ATCC 49619) [µg/mL]
C/C(CN)=C1/CCCN(c2c(F)cc3c(=O)c(C(=O)O)cn(-c4nc(N)c(F)cc4F)c3c2Cl)C1 [Compound 423, (E)-1-(6-Amino-3,5-difluoro-pyridin-2-yl)-7-[3-(2-amino-1-methyl-ethylidene)-piperidin-1-yl]-8-chloro-6-fluoro-4-oxo-1,4-dihydro-quinoline-3-carboxylic acid]	0.25 (≈ 0.492 µM)	4 (≈ 7.88 µM)	> 16	> 16	> 16	–	–	–	–	–	–
N#CC(CN)=C1CCN(c2nc3c(cc2F)c(=O)c(C(=O)O)cn3C2CC2)CC1 [Compound 283, 7-[4-(2-Amino-1-cyano-ethylidene)-piperidin-1-yl]-1-cyclopropyl-6-fluoro-4-oxo-1,4-dihydro-[1,8]naphthyridine-3-carboxylic Acid]	0.25 (≈ 0.629 µM)	0.5 (≈ 1.26 µM)	2 (≈ 5.03 µM)	4 (≈ 10.1 µM)	8 (≈ 20.1 µM)	–	–	–	–	–	–
CC(CO)=C1CCN(c2c(F)cc3c(=O)c(C(=O)O)cn4c3c2OCC4C)CC1 (stereo not shown) [Compound 211, 8-Fluoro-9-[4-(2-hydroxy-1-methyl-ethylidene)-piperidin-1-yl]-3-methyl-6-oxo-2,3-dihydro-6H-1-oxa-3a-aza-phenalene-5-carboxylic acid]	0.03 (≈ 0.0745 µM)	0.5 (≈ 1.24 µM)	4 (≈ 9.94 µM)	4 (≈ 9.94 µM)	–	–	–	–	–	–	–
CNCC=C1CCN(c2c(F)cc3c(=O)c(C(=O)O)cn(C4CC4)c3c2OC)CC1 [Compound 221, 1-Cyclopropyl-6-fluoro-8-methoxy-7-[4-(2-methylamino-ethylidene)-piperidin-1-yl]-4-oxo-1,4-dihydro-quinoline-3-carboxylic Acid Trifluoroacetic Acid Salt]	–	–	2	4	4	–	–	–	–	–	–
NCCNCC(Cl)=C1CCN(c2nc3c(cc2F)c(=O)c(C(=O)O)cn3C2CC2)CC1.O=C(O)C(F)(F)F [Compound 289, 7-{4-[2-(2-Amino-ethylamino)-1-chloro-ethylidene]-piperidin-1-yl}-1-cyclopropyl-6-fluoro-4-oxo-1,4-dihydro-[1,8]naphthyridine-3-carboxylic Acid Trifluoroacetic Acid Salt]	0.5	0.25	–	1	2	–	–	–	–	–	–
NC/C(F)=C1/CCCN(c2cc3c(cc2F)c(=O)c(C(=O)O)cn3C2CC2)C1 [Compound 256, (E)-7-[3-(2-Amino-1-fluoro-ethylidene)-piperidin-1-yl]-1-cyclopropyl-6-fluoro-4-oxo-1,4-dihydro-quinoline-3-carboxylic Acid Trifluoroacetic Acid Salt]	–	–	1	1	1	0.03	0.06	–	–	–	–
CNCC(C)=C1CCN(c2nc3c(cc2F)c(=O)c(C(=O)O)cn3C2CC2)CC1 [Compound 79, 1-Cyclopropyl-6-fluoro-7-[4-(1-methyl-2-methylamino-ethylidene)-piperidin-1-yl]-4-oxo-1,4-dihydro-[1,8]naphthyridine-3-carboxylic acid]	–	0.25 (≈ 0.624 µM)	–	2 (≈ 4.99 µM)	1 (≈ 2.5 µM)	–	–	0.06 (≈ 0.15 µM)	–	–	–
COc1c(N2CCC/C(=C(\F)CN)C2)c(F)c(C)c2c(=O)c(C(=O)O)cn(C3CC3)c12 [Compound 458, 7-[(E)-3-(2-Amino-1-fluoro-ethylidene)-piperidin-1-yl]-1-cyclopropyl-6-fluoro-8-methoxy-5-methyl-4-oxo-1,4-dihydro-quinoline-3-carboxylic Acid]	≤ 0.015	0.06 (≈ 0.138 µM)	0.03 (≈ 0.0692 µM)	0.25 (≈ 0.577 µM)	0.25 (≈ 0.577 µM)	–	–	–	–	–	–
COc1c(N2CC(=C(Cl)CO)C2)c(F)cc2c(=O)c(C(=O)O)cn(C3CC3)c12 [Compound 356, 7-[3-(1-Chloro-2-hydroxy-ethylidene)-azetidin-1-yl]-1-cyclopropyl-6-fluoro-8-methoxy-4-oxo-1,4-dihydro-quinoline-3-carboxylic Acid]	0.06 (≈ 0.147 µM)	0.5 (≈ 1.22 µM)	≤ 4	> 16	8 (≈ 19.6 µM)	–	–	–	–	–	–
NCC(F)=C1CN(c2nc3c(cc2F)c(=O)c(C(=O)O)cn3-c2ccc(F)cc2F)C1 [Compound 183, 7-[3-(2-Amino-1-fluoro-ethylidene)-azetidin-1-yl]-1-(2,4-difluoro-phenyl)-6-fluoro-4-oxo-1,4-dihydro-[1,8]naphthyridine-3-carboxylic acid]	0.12 (≈ 0.276 µM)	0.25 (≈ 0.576 µM)	–	2 (≈ 4.6 µM)	2 (≈ 4.6 µM)	–	–	–	–	–	–
C/C(CN)=C1/CCCN(c2nc3c(cc2F)c(=O)c(C(=O)O)cn3C2CC2)C1 [Compound 377, (E)-7-[3-(2-Amino-1-methyl-ethylidene)-piperidin-1-yl]-1-cyclopropyl-6-fluoro-4-oxo-1,4-dihydro-[1,8]naphthyridine-3-carboxylic acid]	0.5 (≈ 1.29 µM)	4 (≈ 10.4 µM)	16 (≈ 41.4 µM)	8 (≈ 20.7 µM)	> 16	–	–	–	–	–	–
C/C(CN)=C1\CCCN(c2nc3c(cc2F)c(=O)c(C(=O)O)cn3-c2ccc(F)cc2F)C1 [Compound 380, (Z)-7-[3-(2-Amino-1-methyl-ethylidene)-piperidin-1-yl]-1-(2,4-difluoro-phenyl)-6-fluoro-4-oxo-1,4-dihydro-[1,8]naphthyridine-3-carboxylic acid]	0.12 (≈ 0.262 µM)	0.5 (≈ 1.09 µM)	8 (≈ 17.5 µM)	8 (≈ 17.5 µM)	4 (≈ 8.73 µM)	–	–	–	–	–	–
CNCC(C)=C1CCN(c2c(F)cc3c(=O)c(C(=O)O)cn(C4CC4)c3c2OC(F)F)CC1 [Compound 220, 1-Cyclopropyl-8-difluoromethoxy-6-fluoro-7-[4-(1-methyl-2-methylamino-ethylidene)-piperidin-1-yl]-4-oxo-1,4-dihydro-quinoline-3-carboxylic acid]	–	–	2 (≈ 4.3 µM)	–	–	–	–	0.12 (≈ 0.258 µM)	4 (≈ 8.59 µM)	0.5 (≈ 1.07 µM)	0.5 (≈ 1.07 µM)
COc1c(N2CCC(=C(CN)CCO)CC2)c(F)cc2c(=O)c(C(=O)O)cn(C3CC3)c12 [Compound 201, 7-[4-(1-Aminomethyl-3-hydroxy-propylidene)-piperidin-1-yl]-1-cyclopropyl-6-fluoro-8-methoxy-4-oxo-1,4-dihydro-quinoline-3-carboxylic acid]	0.12 (≈ 0.269 µM)	0.5 (≈ 1.12 µM)	–	2 (≈ 4.49 µM)	8 (≈ 18 µM)	–	–	–	–	–	–
CCC(CN)=C1CCN(c2c(F)cc3c(=O)c(C(=O)O)cn(C4CC4)c3c2OC)CC1 [Compound 71, 7-[4-(1-Aminomethyl-propylidene)-piperidin-1-yl]-1-cyclopropyl-6-fluoro-8-methoxy-4-oxo-1,4-dihydro-quinoline-3-carboxylic acid]	0.03 (≈ 0.0698 µM)	0.12 (≈ 0.279 µM)	–	0.25 (≈ 0.582 µM)	0.5 (≈ 1.16 µM)	–	–	–	–	–	–
COc1c(N2CCC(=C(C#N)CN)CC2)c(F)cc2c(=O)c(C(=O)O)cn([C@@H]3C[C@@H]3F)c12 [Compound 439, 7-[4-(2-Amino-1-cyano-ethylidene)-piperidin-1-yl]-6-fluoro-(1R,2S)-1-(2-fluoro-cyclopropyl)-8-methoxy-4-oxo-1,4-dihydro-quinoline-3-carboxylic Acid]	0.06 (≈ 0.135 µM)	0.25 (≈ 0.563 µM)	–	2 (≈ 4.5 µM)	2 (≈ 4.5 µM)	–	–	–	–	–	–
CNC/C(Cl)=C1/CCCN(c2cc3c(cc2F)c(=O)c(C(=O)O)cn3C2CC2)C1.Cl [Compound 428, (E)-7-[3-(1-Chloro-2-methylamino-ethylidene)-piperidin-1-yl]-1-cyclopropyl-6-fluoro-4-oxo-1,4-dihydroquinoline-3-carboxylic Acid Hydrochloride Salt]	0.25	1	> 16	> 16	> 16	–	–	–	–	–	–
